The results in this text go back to paper PMC7180948, “New Insights into 4-Anilinoquinazolines as Inhibitors of Cardiac Troponin I–Interacting Kinase (TNNi3K)” (Molecules, 2020).

Assay in all cases: biochemical
In one assay the target is PIK3C2B (Homo sapiens, UniProt O00750). Set-up: KINOMEscan competition binding panel (Eurofins DiscoverX), single concentration, % inhibition. The conditions noted are these: read-out: 7 at 1 µM % inhibition. As for the experimental part:
(§1) KinomeScan® Assay on 7 and 15 was performed as previously described by EuroFins DiscoverX [24]. GSK114 (7) and 15 were submitted for a KINOMEscan® assay to explore the selectivity profile across >400 human kinases at a compound concentration of 1 µM. […] GSK114 (7) is a narrow-spectrum TNNi3K inhibitor but has some potent off-targets including GAK which has been previously reported for this chemotype. […] If utilized together this set of compounds could be useful to investigate TNNi3K biology.

The next assay concerns the target AKT3 (Homo sapiens, UniProt Q9Y243). Set-up: KINOMEscan competition binding panel (Eurofins DiscoverX), single concentration, % inhibition. The conditions noted are these: read-out: 7 at 1 µM % inhibition. How it is done: as §1
In the next assay the target is TTK (Homo sapiens, UniProt P33981). Set-up: KINOMEscan competition binding panel (Eurofins DiscoverX), single concentration, % inhibition. The conditions noted are these: read-out: 7 at 1 µM % inhibition. How it is done: as §1
Sequence of TTK (P33981 whole entry): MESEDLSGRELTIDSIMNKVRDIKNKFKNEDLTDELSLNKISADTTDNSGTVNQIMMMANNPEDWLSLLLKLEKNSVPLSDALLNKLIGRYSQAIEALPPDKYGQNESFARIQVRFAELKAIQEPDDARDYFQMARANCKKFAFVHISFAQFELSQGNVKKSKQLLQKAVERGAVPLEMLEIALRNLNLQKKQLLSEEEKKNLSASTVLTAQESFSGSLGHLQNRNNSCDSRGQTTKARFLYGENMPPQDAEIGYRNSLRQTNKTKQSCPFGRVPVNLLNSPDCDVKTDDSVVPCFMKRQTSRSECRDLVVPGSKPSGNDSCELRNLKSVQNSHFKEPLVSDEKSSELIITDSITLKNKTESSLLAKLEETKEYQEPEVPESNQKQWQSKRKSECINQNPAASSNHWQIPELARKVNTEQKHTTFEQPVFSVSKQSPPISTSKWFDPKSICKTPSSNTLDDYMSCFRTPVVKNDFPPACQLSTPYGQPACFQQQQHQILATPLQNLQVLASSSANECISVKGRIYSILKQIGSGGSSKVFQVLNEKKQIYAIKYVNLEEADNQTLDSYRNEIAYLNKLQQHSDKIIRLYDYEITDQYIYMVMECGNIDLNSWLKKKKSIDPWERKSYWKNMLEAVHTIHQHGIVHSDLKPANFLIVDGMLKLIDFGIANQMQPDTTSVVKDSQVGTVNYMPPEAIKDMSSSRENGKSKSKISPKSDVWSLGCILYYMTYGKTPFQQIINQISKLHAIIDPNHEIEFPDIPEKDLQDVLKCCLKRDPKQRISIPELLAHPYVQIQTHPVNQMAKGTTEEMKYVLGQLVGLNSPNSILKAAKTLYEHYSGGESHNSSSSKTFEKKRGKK
In assay [1] the target is EGFR(L747-S752del, P753S) (Homo sapiens, UniProt P00533, DEL747-752/P753S). Set-up: KINOMEscan competition binding panel (Eurofins DiscoverX), single concentration, % inhibition. Particulars: read-out: 7 at 1 µM % inhibition. As for the experimental part: as §1
For another assay, the target named is LATS2 (Homo sapiens, UniProt Q9NRM7). Further details: KINOMEscan competition binding panel (Eurofins DiscoverX), single concentration, % inhibition. The conditions noted are these: read-out: 7 at 1 µM % inhibition. How it is done:
as §1

Assay [2] deals with T1, ABL1(Q252H)-phosphorylated (Homo sapiens, UniProt P00519, Q252H).
T1 construct: phosphorylated
Set-up: KINOMEscan competition binding panel (Eurofins DiscoverX), single concentration, % inhibition. Particulars: read-out: 7 at 1 µM % inhibition. How it is done:
as §1

Another assay concerns the target PKNB(M.tuberculosis) (Mycobacterium tuberculosis, UniProt P9WI81). Further details: KINOMEscan competition binding panel (Eurofins DiscoverX), single concentration, % inhibition. Particulars: read-out: 7 at 1 µM % inhibition (pathogen kinases). How it is done: as §1
Another assay has as its target FER (Homo sapiens, UniProt P16591). Set-up: KINOMEscan competition binding panel (Eurofins DiscoverX), single concentration, % inhibition. The conditions noted are these: read-out: 7 at 1 µM % inhibition. How it is done:
as §1

The target of the next assay is AURKB (Homo sapiens, UniProt Q96GD4). Set-up: KINOMEscan competition binding panel (Eurofins DiscoverX), single concentration, % inhibition. Particulars: read-out: 7 at 1 µM % inhibition. As for the experimental part:
as §1

Another assay concerns the target ULK3 (Homo sapiens, UniProt Q6PHR2). Set-up: KINOMEscan competition binding panel (Eurofins DiscoverX), single concentration, % inhibition. The conditions noted are these: read-out: 7 at 1 µM % inhibition. How it is done: as §1
The target of another assay is EGFR(G719C) (Homo sapiens, UniProt P00533, G719C). Further details: KINOMEscan competition binding panel (Eurofins DiscoverX), single concentration, % inhibition. Particulars: read-out: 7 at 1 µM % inhibition. As for the experimental part: as §1
Sequence of EGFR(G719C) (P00533 whole entry G719C): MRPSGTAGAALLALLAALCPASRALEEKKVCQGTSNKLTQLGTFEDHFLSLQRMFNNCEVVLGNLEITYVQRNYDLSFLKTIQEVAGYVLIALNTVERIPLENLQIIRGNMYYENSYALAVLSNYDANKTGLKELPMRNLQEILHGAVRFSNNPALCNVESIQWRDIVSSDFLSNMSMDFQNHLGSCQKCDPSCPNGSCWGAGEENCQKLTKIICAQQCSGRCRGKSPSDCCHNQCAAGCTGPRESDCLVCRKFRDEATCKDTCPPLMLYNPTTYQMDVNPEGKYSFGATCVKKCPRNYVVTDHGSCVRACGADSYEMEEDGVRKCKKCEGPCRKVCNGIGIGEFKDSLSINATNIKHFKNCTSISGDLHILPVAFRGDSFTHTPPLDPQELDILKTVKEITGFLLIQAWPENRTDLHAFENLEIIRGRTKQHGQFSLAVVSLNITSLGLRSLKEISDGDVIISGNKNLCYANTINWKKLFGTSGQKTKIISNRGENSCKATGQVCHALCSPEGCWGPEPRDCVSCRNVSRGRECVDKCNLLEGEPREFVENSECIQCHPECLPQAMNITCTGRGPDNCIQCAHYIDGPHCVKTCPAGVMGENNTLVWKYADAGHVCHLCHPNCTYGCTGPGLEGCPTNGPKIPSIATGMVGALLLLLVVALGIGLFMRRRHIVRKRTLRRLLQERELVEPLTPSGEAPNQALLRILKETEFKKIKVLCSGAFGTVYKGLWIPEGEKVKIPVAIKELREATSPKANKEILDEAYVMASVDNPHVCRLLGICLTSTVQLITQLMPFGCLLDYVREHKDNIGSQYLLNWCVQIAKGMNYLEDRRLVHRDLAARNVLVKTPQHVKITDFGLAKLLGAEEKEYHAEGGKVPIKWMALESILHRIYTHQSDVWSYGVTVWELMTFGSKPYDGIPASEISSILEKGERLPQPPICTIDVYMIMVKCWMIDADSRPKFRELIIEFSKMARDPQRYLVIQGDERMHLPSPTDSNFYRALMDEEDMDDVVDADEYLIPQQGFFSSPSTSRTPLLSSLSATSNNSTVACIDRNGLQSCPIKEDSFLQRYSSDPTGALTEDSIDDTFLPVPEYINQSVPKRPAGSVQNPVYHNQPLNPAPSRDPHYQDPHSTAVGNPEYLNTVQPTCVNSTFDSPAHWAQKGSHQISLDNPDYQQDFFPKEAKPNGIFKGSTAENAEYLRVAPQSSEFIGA
The next assay addresses T2, MEK3 (Homo sapiens, UniProt P46734).
T2 construct: gene MAP2K3
Set-up: KINOMEscan competition binding panel (Eurofins DiscoverX), single concentration, % inhibition. Particulars: read-out: 7 at 1 µM % inhibition. As for the experimental part: as §1

The target in the next assay is CSNK2A1 (Homo sapiens, UniProt P68400). Set-up: KINOMEscan competition binding panel (Eurofins DiscoverX), single concentration, % inhibition. Particulars: read-out: 7 at 1 µM % inhibition. As for the experimental part: as §1
Sequence of CSNK2A1 (P68400 whole entry): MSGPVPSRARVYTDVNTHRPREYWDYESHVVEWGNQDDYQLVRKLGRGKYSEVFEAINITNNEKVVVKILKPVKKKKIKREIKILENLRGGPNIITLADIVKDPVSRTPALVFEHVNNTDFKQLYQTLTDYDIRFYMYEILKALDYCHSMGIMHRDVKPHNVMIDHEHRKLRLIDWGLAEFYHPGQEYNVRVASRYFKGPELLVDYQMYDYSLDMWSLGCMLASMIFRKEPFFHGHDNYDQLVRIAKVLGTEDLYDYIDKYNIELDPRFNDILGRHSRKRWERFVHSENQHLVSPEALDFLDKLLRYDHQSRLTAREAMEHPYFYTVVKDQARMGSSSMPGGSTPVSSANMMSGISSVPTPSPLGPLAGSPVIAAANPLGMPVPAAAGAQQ
Assay [3] has as its target T3, ABL1(F317L)-nonphosphorylated (Homo sapiens, UniProt P00519, F317L).
T3 construct: nonphosphorylated
Set-up: KINOMEscan competition binding panel (Eurofins DiscoverX), single concentration, percent inhibition. Particulars: read-out: 15 at 1 µM % inhibition. The procedure, abridged: (§2)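 Kinome-wide profiling (KINOMEscan, >400 human kinases) was run at 1 µM compound.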

Another assay addresses MAP4K2 (Homo sapiens, UniProt Q12851). Further details: KINOMEscan competition binding panel (Eurofins DiscoverX), single concentration, percent inhibition. The conditions noted are these: read-out: 15 at 1 µM % inhibition. The procedure, abridged:
as §2

The target in the next assay is T4, SgK110 (Homo sapiens, UniProt P0C264).
T4 construct: gene SBK3
Further details: KINOMEscan competition binding panel (Eurofins DiscoverX), single concentration, percent inhibition. The conditions noted are these: read-out: 15 at 1 µM % inhibition. The procedure, abridged: as §2

A further assay deals with TSSK3 (Homo sapiens, UniProt Q96PN8). Set-up: KINOMEscan competition binding panel (Eurofins DiscoverX), single concentration, percent inhibition. Particulars: read-out: 15 at 1 µM % inhibition. The procedure, abridged:
as §2

A further assay has as its target MYLK2 (Homo sapiens, UniProt Q9H1R3). Set-up: KINOMEscan competition binding panel (Eurofins DiscoverX), single concentration, percent inhibition. Particulars: read-out: 15 at 1 µM % inhibition. The procedure, abridged: as §2
Another assay concerns the target RET(M918T) (Homo sapiens, UniProt P07949, M918T). Further details: KINOMEscan competition binding panel (Eurofins DiscoverX), single concentration, percent inhibition. The conditions noted are these: read-out: 15 at 1 µM % inhibition. The procedure, abridged: as §2
The target of a further assay is T5, PKAC-beta (Homo sapiens, UniProt P22694).
T5 construct: gene PRKACB
Set-up: KINOMEscan competition binding panel (Eurofins DiscoverX), single concentration, percent inhibition. Particulars: read-out: 15 at 1 µM % inhibition. The procedure, abridged: as §2

The target in a further assay is NEK10 (Homo sapiens, UniProt Q6ZWH5). Further details: KINOMEscan competition binding panel (Eurofins DiscoverX), single concentration, percent inhibition. The conditions noted are these: read-out: 15 at 1 µM % inhibition. The procedure, abridged:
as §2

Assay [4] addresses T6, ABL1(F317L)-phosphorylated (Homo sapiens, UniProt P00519, F317L).
T6 construct: phosphorylated
Further details: KINOMEscan competition binding panel (Eurofins DiscoverX), single concentration, percent inhibition. Particulars: read-out: 15 at 1 µM % inhibition. The procedure, abridged:
as §2

Another assay has as its target T7, ERK1 (Homo sapiens, UniProt P27361).
T7 construct: gene MAPK3
Set-up: KINOMEscan competition binding panel (Eurofins DiscoverX), single concentration, percent inhibition. The conditions noted are these: read-out: 15 at 1 µM % inhibition. The procedure, abridged: as §2

Sequence of TSSK3 (Q96PN8 whole entry): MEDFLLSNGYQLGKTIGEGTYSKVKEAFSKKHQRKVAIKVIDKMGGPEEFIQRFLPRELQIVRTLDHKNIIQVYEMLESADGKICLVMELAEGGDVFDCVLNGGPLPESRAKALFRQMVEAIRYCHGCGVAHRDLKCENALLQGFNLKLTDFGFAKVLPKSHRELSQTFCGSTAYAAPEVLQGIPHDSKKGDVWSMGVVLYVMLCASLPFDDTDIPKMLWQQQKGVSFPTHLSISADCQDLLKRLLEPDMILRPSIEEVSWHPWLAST
Sequence of MYLK2 (Q9H1R3 whole entry): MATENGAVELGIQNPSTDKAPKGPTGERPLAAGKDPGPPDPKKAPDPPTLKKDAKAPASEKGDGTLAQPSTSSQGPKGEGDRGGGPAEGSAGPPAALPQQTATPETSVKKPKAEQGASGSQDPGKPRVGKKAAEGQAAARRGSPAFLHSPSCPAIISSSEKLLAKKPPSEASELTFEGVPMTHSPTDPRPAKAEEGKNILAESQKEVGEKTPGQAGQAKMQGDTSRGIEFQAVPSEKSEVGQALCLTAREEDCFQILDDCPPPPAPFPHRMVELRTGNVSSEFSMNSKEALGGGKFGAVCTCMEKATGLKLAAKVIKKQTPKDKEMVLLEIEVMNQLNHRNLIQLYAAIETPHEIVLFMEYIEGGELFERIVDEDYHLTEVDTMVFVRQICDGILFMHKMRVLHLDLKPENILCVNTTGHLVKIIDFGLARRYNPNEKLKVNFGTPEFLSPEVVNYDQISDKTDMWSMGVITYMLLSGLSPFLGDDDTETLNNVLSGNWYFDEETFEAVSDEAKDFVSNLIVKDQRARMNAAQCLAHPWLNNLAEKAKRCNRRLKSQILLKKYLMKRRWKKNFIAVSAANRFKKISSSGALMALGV
Sequence of NEK10 (Q6ZWH5 whole entry): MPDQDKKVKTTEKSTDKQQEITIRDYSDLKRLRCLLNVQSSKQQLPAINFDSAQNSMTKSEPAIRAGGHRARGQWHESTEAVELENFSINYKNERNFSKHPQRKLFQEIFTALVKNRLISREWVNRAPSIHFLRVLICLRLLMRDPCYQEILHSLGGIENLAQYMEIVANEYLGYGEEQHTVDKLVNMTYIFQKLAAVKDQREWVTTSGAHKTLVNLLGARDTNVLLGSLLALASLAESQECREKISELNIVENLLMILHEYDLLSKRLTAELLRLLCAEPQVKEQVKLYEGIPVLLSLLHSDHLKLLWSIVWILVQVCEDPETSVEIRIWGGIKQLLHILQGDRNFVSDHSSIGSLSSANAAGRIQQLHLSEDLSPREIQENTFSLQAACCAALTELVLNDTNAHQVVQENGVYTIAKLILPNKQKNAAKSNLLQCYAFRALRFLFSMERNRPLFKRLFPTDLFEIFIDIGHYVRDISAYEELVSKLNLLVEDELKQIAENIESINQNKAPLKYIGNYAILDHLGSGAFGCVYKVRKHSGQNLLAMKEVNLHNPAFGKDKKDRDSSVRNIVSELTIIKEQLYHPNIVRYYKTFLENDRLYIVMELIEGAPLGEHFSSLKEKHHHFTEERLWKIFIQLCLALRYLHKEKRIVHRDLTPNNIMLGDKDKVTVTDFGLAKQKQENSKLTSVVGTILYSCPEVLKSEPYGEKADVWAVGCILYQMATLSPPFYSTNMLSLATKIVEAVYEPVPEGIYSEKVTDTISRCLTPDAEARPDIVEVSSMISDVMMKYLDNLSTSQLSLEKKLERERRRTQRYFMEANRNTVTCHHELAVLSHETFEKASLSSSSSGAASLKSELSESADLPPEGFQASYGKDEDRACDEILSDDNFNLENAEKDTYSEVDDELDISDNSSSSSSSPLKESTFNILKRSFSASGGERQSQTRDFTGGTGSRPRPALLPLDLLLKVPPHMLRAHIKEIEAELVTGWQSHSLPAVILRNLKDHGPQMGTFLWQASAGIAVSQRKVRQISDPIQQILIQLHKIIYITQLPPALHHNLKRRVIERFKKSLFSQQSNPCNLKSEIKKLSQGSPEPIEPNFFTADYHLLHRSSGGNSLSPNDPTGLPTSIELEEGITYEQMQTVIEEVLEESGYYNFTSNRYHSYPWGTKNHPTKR
T7 sequence (P27361 whole entry): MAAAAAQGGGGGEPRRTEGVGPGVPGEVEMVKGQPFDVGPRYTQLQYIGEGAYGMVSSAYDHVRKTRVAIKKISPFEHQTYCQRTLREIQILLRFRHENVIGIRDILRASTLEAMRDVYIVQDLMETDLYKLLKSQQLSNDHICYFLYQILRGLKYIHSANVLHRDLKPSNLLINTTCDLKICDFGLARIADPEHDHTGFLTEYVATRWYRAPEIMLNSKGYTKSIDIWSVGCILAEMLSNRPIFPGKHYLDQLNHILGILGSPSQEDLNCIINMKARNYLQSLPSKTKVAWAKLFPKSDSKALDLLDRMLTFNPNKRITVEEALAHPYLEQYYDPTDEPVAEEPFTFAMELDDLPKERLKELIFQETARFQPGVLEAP

Consider `CNS(=O)(=O)c1ccc(N(C)C)c(Nc2ncnc3cc(OC)c(OC)cc23)c1` [compound 7, 3-((6,7-dimethoxyquinazolin-4-yl)amino)-4-(dimethylamino)-N-methylbenzenesulfonamide], for which the inhibition at 1 µM on PIK3C2B was 77%; at AKT3 it was 0%; on TTK, 7%; in assay [1], 0%; at LATS2, 0%; in assay [2], 79%. In addition, the inhibition at 1 µM was 23% at PKNB(M.tuberculosis); 0% on FER; 0% on AURKB; 29% on ULK3; 0% on EGFR(G719C); 4% on MEK3. Moreover, the inhibition at 1 µM on CSNK2A1 was found to be 0%.
In the case of `CNS(=O)(=O)c1ccc(N(C)C)c(Nc2nc(C)nc3cc(OC)c(OC)cc23)c1` [compound 15, 3-((6,7-dimethoxy-2-methylquinazolin-4-yl)amino)-4-(dimethylamino)-N-methylbenzenesulfonamide], the inhibition at 1 µM in [3] was determined as 33%; on MAP4K2 it was 3%; on SgK110, 0%; on TSSK3 it was 28%; at MYLK2 it was 3%; at RET(M918T), 0%. Also, the inhibition at 1 µM (on PKAC-beta; at NEK10; in [4]; at ERK1) was 0% each time.

As a reminder, the inhibition is how much of the control response was suppressed.
